In patent US4430319A, “Radioactive iodine labeled phenolic amines” (State University of New York, priority 1982, dated 1984):

Assay: Biodistribution of I-123 Compound in rats (i.v. injection, excised organs gamma counted)
Format: in vivo, Sprague-Dawley male rats
Settings: for Blood/Brain: concentration ratio calculated from % dose/gram of wet tissue; for Biodistribution, Brain / Biodistribution, Heart / Biodistribution, Kidneys / Biodistribution, Liver / Biodistribution, Lungs / Biodistribution, Skin / Biodistribution, Spleen / Biodistribution, Stomach / Biodistribution, Thyroids / Biodistribution, Blood / Biodistribution, Muscle: average of 3; for Biodistribution, Blood: blood taken as 7% of body weight; for Biodistribution, Muscle: muscle taken as 40% of body weight
Description: Studies of distribution of the optimum radiopharmaceutical compound of the present invention in rats, the results of which are reflected in Table 1, were conducted according to standard practice in the pharmacological sciences, and therefore need not be described here in great detail. Nevertheless, for the sake of complete understanding of the present invention, some experimental details of these studies are briefly described below: Sprague-Dawley male rats (220-300 g) were injected intravenously (femoral vein) with a 0.2 ml solution (0.5-20. micro Ci) under light ether anaesthesia. At different time periods after the injection, the animals were sacrificed and organs of interest were excised and counted in a well counter. Percent dose was estimated by comparison of tissue counts to suitably diluted aliquots of the injected material. Total activities in blood and muscle were calculated by assuming that they are 7% and 40% of the body weight respectively. Sprague-Dawley male rats (220-300 g) under light ether anesthesia were injected intravenously with 0.2 ml of a saline solution containing 0.5-20 uCi of test compound (specific activity 0.5-1.0 uCi/mg). At different time periods after injection the animals were put under ether anesthesia and killed by cardiactomy. The organs of interest were excised, weighed and counted in a Beckman automatic gamma counter (Model 4000). The % dose/organ was determined by comparison of tissue radioactivity levels to suitably diluted aliquots of the injected dose. The approximate % dose/g of wet tissue or organ can be calculated by dividing the % dose/organ by the mean organ weight (mean weights: heart 0.85 g, brain 1.65 g, blood 18 g, liver 9 g, kidneys 1.9 g, lungs 1.6 g).

[1] = 2 min after i.v. injection, rats
[2] = 1 hr after i.v. injection, rats

Blood/Brain (2 min after i.v. injection): 14.84 | Biodistribution, Brain [1]: 2.74 % dose/organ | Biodistribution, Heart [1]: 2.71 % dose/organ | Biodistribution, Kidneys [1]: 8.06 % dose/organ | Biodistribution, Liver [1]: 5.52 % dose/organ | Biodistribution, Lungs [1]: 36.53 % dose/organ | Biodistribution, Skin [1]: 6.73 % dose/organ | Biodistribution, Spleen [1]: 0.72 % dose/organ | Biodistribution, Stomach [1]: 0.80 % dose/organ | Biodistribution, Thyroids [1]: 0.59 % dose/organ | Biodistribution, Blood [1]: 2.02 % dose/organ | Biodistribution, Muscle [1]: 5.66 % dose/organ | Blood/Brain (1 hr after i.v. injection): 32.18 | Biodistribution, Brain [2]: 2.50 % dose/organ | Biodistribution, Heart [2]: 0.29 % dose/organ | Biodistribution, Kidneys [2]: 2.87 % dose/organ | Biodistribution, Liver [2]: 4.68 % dose/organ | Biodistribution, Lungs [2]: 18.25 % dose/organ | Biodistribution, Skin [2]: 9.21 % dose/organ | Biodistribution, Spleen [2]: 1.58 % dose/organ | Biodistribution, Stomach [2]: 0.93 % dose/organ | Biodistribution, Thyroids [2]: 0.06 % dose/organ | Biodistribution, Blood [2]: 0.85 % dose/organ | Biodistribution, Muscle [2]: 12.77 % dose/organ | initial uptake in the brain, lung and liver (rats, i.v., Table 1, in words): high initial uptake | persistence of uptake in the brain, lung and liver (rats, i.v., Table 1, in words): persists sufficiently to allow imaging
Structure (SMILES): Cc1cc([123I])cc(CN(C)CCCN(C)C)c1O [I-123 Compound, N,N,N-trimethyl-N'[2-hydroxy-3-methyl-5-iodobenzyl]-1,3-propanediamines]
